Experimental data reported in ChEMBL document CHEMBL1144651, “Concise synthesis of dideoxy-epigallocatechin gallate (DO-EGCG) and evaluation of its anti-influenza virus activity” (Bioorg Med Chem Lett, 2007).

Test system: Influenza A virus
Experiment: Antiviral activity against Influenza A virus (A/Memphis/1/71(H3N2)) in MDCK cells after 16 hrs by focus forming assay
Format: functional, organism-based, Influenza A virus (A/Memphis/1/1971(H3N2))

Row | Compound | IC50 [µM]
1 | O=C(O[C@@H]1Cc2ccccc2O[C@@H]1c1cc(O)c(O)c(O)c1)c1cc(O)c(O)c(O)c1 | 11.9
2 | O=C(O[C@@H]1Cc2c(O)cc(O)cc2O[C@@H]1c1cc(O)c(O)c(O)c1)c1cc(O)c(O)c(O)c1 [EPIGALOCATECHIN GALLATE] | 41.2
